In patent publication US6645774B1 (Synaptic Pharmaceutical Corporation, priority 1994, dated 2003):
Structures can show the parent of a compound that is named as a salt. Where two headings read alike, the source gives them in different places.

Columns and labels:
human 5HT1E receptor = human 5HT1E receptor (Homo sapiens, UniProt P28566); experiment: Cross-reactivity binding, human 5HT1E receptor; conditions: for Receptor (pKi) 5HT1E: cloned human receptor
human 5HT1F receptor = biological target: T1, human 5HT1F receptor (Homo sapiens, UniProt P30939); experiment: Cross-reactivity binding, human 5HT1F receptor; conditions: for Receptor (pKi) 5HT1F: cloned human receptor
T1 sequence (P30939 1-366): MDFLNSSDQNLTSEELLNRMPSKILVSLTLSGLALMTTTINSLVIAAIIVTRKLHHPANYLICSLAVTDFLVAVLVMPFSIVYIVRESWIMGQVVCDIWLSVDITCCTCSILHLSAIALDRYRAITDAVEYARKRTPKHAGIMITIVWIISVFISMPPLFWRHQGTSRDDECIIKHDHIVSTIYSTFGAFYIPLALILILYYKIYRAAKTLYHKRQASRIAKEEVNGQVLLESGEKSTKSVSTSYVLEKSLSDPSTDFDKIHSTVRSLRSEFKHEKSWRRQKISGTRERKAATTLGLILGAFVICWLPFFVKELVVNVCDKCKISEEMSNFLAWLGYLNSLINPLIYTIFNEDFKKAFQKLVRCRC

human Y2 receptor [1] = biological target: T2, human Y2 receptor (Homo sapiens, UniProt P49146); experiment: ^125I-PYY binding of compounds to human Y2 receptor, stably transfected cells
T2 sequence (P49146 1-381): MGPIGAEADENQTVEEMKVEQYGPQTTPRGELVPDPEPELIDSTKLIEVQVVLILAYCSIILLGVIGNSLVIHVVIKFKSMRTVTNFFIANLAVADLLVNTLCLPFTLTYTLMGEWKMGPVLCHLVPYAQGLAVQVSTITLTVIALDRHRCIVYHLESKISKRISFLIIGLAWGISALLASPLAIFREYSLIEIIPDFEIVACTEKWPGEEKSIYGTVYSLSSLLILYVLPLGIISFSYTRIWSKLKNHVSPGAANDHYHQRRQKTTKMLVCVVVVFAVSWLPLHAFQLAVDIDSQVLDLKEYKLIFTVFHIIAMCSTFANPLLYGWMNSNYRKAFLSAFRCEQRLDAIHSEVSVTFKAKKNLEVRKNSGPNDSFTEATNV
Experimental: (§1) To prepare membranes from baculovirus infected cells, 2×10^7 Sf21 cells were grown in 150 mm tissue culture dishes and infected with a high-titer stock of hY5BB3.

human 5HT1Dα receptor = human 5HT1Dα receptor (Homo sapiens, UniProt P28221); experiment: Cross-reactivity binding, human 5HT1Dα receptor; conditions: for Receptor (pKi) 5HT1Dα: cloned human receptor
Sequence of human 5HT1Dα receptor (P28221 whole entry): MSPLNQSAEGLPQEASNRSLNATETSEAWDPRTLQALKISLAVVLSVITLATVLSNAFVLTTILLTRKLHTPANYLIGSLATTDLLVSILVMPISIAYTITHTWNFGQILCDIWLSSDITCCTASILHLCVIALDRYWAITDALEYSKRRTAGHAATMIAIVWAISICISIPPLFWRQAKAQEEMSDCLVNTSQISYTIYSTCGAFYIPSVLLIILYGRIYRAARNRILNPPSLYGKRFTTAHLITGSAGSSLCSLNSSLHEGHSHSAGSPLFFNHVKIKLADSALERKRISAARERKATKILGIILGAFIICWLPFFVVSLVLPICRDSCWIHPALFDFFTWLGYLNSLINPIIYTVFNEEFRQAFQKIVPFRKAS

5HT1D2 = 5HT1D2 (Homo sapiens, UniProt P28222); experiment: Cross-reactivity binding, human 5HT1D2 receptor; conditions: for Receptor (pKi) 5HT1D2: cloned human receptor
Sequence of 5HT1D2 (P28222 whole entry): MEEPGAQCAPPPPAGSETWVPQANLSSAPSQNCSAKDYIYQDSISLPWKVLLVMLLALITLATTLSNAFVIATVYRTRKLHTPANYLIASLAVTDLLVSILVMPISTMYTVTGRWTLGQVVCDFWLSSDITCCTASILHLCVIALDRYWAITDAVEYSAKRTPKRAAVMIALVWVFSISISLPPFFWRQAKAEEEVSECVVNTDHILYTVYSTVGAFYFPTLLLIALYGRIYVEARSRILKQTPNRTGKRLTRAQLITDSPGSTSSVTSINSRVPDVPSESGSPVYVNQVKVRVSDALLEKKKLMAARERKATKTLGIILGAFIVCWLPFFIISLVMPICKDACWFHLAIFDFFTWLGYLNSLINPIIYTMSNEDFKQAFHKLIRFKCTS

[2] = biological target: human dopamine D3 receptor (Homo sapiens, UniProt P35462); experiment: Cross-reactivity binding, human dopamine D3 receptor
Sequence of human dopamine D3 receptor (P35462 whole entry): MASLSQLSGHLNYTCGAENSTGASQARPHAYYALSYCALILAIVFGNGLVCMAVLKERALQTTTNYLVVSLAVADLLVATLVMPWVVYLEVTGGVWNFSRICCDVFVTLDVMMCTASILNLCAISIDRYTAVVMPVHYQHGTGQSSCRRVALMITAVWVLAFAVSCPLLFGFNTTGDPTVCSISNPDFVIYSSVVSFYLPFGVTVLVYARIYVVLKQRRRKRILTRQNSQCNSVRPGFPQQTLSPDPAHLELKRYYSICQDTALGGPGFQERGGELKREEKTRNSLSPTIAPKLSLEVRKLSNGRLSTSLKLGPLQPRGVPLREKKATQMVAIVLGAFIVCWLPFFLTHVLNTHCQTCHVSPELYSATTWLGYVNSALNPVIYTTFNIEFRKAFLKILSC

human 5HT2 receptor = human 5HT2 receptor (Homo sapiens, UniProt P28223); experiment: Cross-reactivity binding, human 5HT2 receptor
Sequence of human 5HT2 receptor (P28223 whole entry): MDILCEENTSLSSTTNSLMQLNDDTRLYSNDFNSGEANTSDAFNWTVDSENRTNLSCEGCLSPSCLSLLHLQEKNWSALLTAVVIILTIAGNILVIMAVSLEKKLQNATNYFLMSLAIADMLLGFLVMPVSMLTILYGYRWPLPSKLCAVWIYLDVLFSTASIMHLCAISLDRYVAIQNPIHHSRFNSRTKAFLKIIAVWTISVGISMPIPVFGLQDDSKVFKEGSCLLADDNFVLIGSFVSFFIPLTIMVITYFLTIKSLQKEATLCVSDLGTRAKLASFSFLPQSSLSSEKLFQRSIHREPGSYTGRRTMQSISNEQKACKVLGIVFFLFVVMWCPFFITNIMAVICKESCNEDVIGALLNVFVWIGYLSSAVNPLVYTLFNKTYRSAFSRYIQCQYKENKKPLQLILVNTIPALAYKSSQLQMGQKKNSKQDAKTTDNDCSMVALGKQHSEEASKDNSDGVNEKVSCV

5HT1a = 5HT1a (Homo sapiens, UniProt P08908); experiment: Cross-reactivity binding, human 5HT1a receptor
Sequence of 5HT1a (P08908 whole entry): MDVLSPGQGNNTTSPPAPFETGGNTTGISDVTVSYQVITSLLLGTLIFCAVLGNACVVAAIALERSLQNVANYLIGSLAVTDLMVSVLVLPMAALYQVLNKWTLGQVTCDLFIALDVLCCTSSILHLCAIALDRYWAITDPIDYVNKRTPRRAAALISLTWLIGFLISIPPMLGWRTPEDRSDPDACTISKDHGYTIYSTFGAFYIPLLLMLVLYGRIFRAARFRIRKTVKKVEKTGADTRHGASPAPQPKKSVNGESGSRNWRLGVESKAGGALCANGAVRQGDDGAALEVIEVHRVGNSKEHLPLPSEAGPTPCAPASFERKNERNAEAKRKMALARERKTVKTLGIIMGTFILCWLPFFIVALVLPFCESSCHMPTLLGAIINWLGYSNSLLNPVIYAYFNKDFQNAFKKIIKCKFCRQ

[3] = biological target: human α2C adrenergic receptor (Homo sapiens, UniProt P18825); experiment: Cross-reactivity binding, cloned human α2c receptor
Sequence of human α2C adrenergic receptor (P18825 whole entry): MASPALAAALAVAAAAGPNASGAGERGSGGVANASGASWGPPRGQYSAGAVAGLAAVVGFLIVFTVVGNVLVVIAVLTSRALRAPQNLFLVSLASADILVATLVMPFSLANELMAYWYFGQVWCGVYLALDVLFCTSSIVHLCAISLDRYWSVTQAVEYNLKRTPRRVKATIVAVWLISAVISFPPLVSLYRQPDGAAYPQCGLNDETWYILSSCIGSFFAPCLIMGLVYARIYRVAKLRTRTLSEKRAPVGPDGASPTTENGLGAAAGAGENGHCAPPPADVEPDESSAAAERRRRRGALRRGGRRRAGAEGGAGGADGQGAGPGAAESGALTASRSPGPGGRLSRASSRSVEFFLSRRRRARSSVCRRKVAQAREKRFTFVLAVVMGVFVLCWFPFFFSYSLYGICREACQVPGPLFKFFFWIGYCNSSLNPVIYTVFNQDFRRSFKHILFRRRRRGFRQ

satiated rats = experiment: NPY-induced food intake in satiated rats; type: in vivo, rat; conditions: 300 pmole i.c.v., p<0.05 Student-Newman-Keuls
Experimental: For these determinations food intake may be measured in normal satiated rats after intracerebroventricular application (i.c.v.) of NPY in the presence or absence of the test compound. Male Sprague Dawley rats (Ciba-Geigy AG, Sisseln, Switzerland) weighing between 180 g and 220 g are used for all experiments. The rats are individually housed in stainless steel cages and maintained on an 11:13 h light-dark cycle (lights off at 18:00 h) at a controlled temperature of 21-23° C. at all times. Water and food (NAFAG lab chow pellets NAFAG, Gossau, Switzerland) are available ad libidum.
Rats under pentobarbital anesthesia are stereotaxically implanted with a stainless steel guide cannula targeted at the right lateral ventricle. Stereotaxic coordinates, with the incisor bar set −2.0 mm below interaural line, are: −0.8 mm anterior and +1.3 mm lateral to bregma. The guide cannula is placed on the dura. […]
Food intake may be measured by placing preweighed pellets into the cages at the time of NPY injection. […] The food intake of animals treated with test compound may be calculated as a percentage of the food intake of control animals i.e., animals treated with vehicle. Alternatively, food intake for each group of animals subjected to a particular experimental condition may be expressed as the mean±S.E.M. Statistical analysis is performed by analysis of variance using the Student-Newman-Keuls test.

human Y4 receptor [4] = biological target: T3, human Y4 receptor (Homo sapiens, UniProt P50391); experiment: ^125I-PYY binding of compounds to human Y4 receptor, stably transfected cells
T3 sequence (P50391 whole entry): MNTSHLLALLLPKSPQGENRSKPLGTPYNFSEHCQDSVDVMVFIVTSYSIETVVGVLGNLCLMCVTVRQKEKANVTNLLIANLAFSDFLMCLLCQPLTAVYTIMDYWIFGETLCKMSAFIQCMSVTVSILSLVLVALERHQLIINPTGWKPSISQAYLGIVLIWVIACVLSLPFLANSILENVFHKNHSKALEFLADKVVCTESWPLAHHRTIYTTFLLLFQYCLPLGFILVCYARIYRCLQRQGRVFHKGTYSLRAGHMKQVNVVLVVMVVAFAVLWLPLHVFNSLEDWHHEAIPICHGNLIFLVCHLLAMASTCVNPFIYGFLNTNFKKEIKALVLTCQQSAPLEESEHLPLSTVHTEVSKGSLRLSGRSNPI
Experimental: as §1

human Y1 receptor = human Y1 receptor (Homo sapiens, UniProt P25929); experiment: ^125I-PYY binding of compounds to human Y1 receptor, stably transfected cells
Sequence of human Y1 receptor (P25929 whole entry): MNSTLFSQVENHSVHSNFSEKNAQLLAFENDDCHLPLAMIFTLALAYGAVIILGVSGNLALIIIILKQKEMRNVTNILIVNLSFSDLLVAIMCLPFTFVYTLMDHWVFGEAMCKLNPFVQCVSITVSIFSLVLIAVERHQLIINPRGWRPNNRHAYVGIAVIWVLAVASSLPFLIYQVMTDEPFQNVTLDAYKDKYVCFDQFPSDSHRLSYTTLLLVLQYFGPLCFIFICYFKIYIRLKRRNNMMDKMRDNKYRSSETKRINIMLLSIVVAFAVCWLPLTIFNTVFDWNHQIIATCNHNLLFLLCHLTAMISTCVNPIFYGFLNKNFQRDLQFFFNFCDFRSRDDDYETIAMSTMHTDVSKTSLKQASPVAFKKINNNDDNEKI
Experimental: as §1

[5] = biological target: human α2A adrenergic receptor (Homo sapiens, UniProt P08913); experiment: Cross-reactivity binding, cloned human α2a receptor
[6] = biological target: human α1b adrenergic receptor (Homo sapiens, UniProt P35368); experiment: Cross-reactivity binding, cloned human α1b receptor
Sequence of human α1b adrenergic receptor (P35368 whole entry): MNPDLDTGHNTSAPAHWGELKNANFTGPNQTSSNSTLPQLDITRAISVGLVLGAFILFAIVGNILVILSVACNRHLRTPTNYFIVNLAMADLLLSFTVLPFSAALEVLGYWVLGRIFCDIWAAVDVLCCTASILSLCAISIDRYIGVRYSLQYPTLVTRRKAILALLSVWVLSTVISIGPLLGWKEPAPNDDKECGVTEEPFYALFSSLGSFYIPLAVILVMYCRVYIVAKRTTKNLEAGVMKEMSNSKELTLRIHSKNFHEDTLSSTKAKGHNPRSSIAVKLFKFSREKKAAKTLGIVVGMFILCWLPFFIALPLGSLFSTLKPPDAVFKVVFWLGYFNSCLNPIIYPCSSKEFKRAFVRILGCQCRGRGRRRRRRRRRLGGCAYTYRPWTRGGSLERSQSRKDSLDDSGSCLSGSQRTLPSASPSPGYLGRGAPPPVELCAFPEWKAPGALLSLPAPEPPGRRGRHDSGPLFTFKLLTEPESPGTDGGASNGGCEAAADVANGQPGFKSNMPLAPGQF

[7] = biological target: human α2B adrenergic receptor (Homo sapiens, UniProt P18089); experiment: Cross-reactivity binding, cloned human α2b receptor
human 5-HT7 receptor = human 5-HT7 receptor (Homo sapiens, UniProt P34969); experiment: Cross-reactivity binding, human 5-HT7 receptor
[8] = biological target: human α1a adrenergic receptor (Homo sapiens, UniProt P35348); experiment: Cross-reactivity binding, cloned human α1a receptor
[9] = biological target: human α1d adrenergic receptor (Homo sapiens, UniProt P25100); experiment: Cross-reactivity binding, cloned human α1d receptor
human Y2 receptor [10] = biological target: T2, human Y2 receptor; experiment: ^125I-PYY binding to cloned human Y2 receptor (COS-7 membranes); conditions: cloned human Y-type receptors; expression system not given
human Y4 receptor [11] = biological target: T3, human Y4 receptor; experiment: ^125I-PYY binding to cloned human Y4 receptor (COS-7 membranes); conditions: cloned human Y-type receptors; expression system not given
rat Y2 receptor [12] = biological target: T4, rat Y2 receptor (Rattus norvegicus, UniProt Q9ERC0); experiment: Antagonism of NPY- or PP-induced activation of rat Y2 receptors; type: cell-based; parameters: expressed in transfected cells; conditions: rat Y2, concentrations up to 1 μM
T4 sequence (Q9ERC0 1-381): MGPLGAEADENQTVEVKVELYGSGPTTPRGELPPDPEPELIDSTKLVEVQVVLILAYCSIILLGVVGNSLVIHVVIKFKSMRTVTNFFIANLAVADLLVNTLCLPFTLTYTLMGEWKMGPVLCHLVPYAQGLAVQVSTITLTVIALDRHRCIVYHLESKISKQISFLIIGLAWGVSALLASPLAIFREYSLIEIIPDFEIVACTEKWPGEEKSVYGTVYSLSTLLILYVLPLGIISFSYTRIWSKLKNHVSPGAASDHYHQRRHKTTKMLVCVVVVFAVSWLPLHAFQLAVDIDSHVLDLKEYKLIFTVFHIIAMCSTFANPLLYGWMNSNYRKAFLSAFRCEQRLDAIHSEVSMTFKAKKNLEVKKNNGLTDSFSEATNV

rat Y2 receptor [13] = biological target: T4, rat Y2 receptor; experiment: ^125I-PYY binding to cloned rat Y2 receptor (COS-7 membranes); conditions: cloned rat Y-type receptors; expression system not given
canine Y5 receptor = experiment: Porcine ^125I-PYY binding to canine Y5 receptor (COS-7 membranes); conditions: COS-7 transient, Table 20 prints no unit, nM
rat Y4 receptor = rat Y4 receptor (Rattus norvegicus, UniProt Q63447); experiment: ^125I-PYY binding to cloned rat Y4 receptor (COS-7 membranes); conditions: cloned rat Y-type receptors; expression system not given
Sequence of rat Y4 receptor (Q63447 whole entry): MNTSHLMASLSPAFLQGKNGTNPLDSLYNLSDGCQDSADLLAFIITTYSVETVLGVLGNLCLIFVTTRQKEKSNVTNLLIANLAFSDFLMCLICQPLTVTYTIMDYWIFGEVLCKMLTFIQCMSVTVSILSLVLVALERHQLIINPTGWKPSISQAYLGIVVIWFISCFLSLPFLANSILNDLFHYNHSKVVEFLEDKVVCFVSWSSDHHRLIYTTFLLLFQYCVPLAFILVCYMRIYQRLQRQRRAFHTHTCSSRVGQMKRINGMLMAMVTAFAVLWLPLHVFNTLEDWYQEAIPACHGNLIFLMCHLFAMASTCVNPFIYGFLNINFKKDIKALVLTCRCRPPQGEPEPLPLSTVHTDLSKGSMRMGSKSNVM

Sequence of human 5HT1E receptor (P28566 whole entry): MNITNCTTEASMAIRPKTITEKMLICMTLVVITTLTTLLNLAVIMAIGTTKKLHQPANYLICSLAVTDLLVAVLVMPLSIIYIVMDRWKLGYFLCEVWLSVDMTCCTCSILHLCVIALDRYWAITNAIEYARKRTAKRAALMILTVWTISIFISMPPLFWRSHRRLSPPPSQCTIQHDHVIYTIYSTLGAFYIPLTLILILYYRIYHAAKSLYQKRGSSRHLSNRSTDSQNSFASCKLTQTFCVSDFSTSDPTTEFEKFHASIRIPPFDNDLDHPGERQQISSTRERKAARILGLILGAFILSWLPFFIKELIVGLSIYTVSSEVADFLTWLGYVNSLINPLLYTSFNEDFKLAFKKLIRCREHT

## O=S(=O)(NC[C@H]1CC[C@H](CNC(CO)Cc2ccc(Cl)cc2)CC1)c1cccc2ccccc12 (stereo partly drawn) [Compound 25, Naphthalene-1-sulfonic Acid trans-(4-{[2-(4-Chlorophenyl)-1-hydroxymethyl-ethylamino]-methyl}cyclohexylmethyl)-amide]
Human 5HT1E receptor
  Ki: 5.01 µM
Human 5HT1F receptor
  Ki: 5.01 µM

## CNS(=O)(=O)Cc1ccc(Nc2nc(Nc3ccccc3)c3ccccc3n2)cc1.Cl [Compound 11, N-Methyl-[4-(4-phenylamino-quinazolin-2-ylamino)-phenyl]-methanesulfonamide Hydrochloride]
Human Y2 receptor [1]
  Ki: > 100000 nM
Human 5HT1Dα receptor
  Receptor (pKi) 5HT1Dα: 5.30
Human 5HT1E receptor
  Receptor (pKi) 5HT1E: 5.30
5HT1D2
  Receptor (pKi) 5HT1D2: 5.30
Human 5HT1F receptor
  Receptor (pKi) 5HT1F: 5.30

## Cl.Nc1nc(NC[C@H]2CC[C@H](CNS(=O)(=O)c3cccc4ccccc34)CC2)nc2ccccc12 [Compound 5, trans-Naphthalene-1-sulfonic Acid {4-[(4-amino-quinazolin-2-ylamino)-methyl]-cyclohexylmethyl}-amide Hydrochloride]
[2]; cloned human receptor, read-out: Receptor (pKi) D3 (converted)
  Ki: 0.0575 µM
Human 5HT1E receptor
  Receptor (pKi) 5HT1E: 5.30
Human 5HT2 receptor; cloned human receptor, read-out: Receptor (pKi) 5HT2 (converted)
  Ki: 0.389 µM
Human 5HT1F receptor
  Receptor (pKi) 5HT1F: 5.30
5HT1a; cloned human receptor, read-out: Receptor (pKi) 5HT1a (converted)
  Ki: 0.468 µM

## Cl.Cl.c1ccc(Nc2nc(Nc3ccc(N4CCCCC4)cc3)nc3ccccc23)cc1 [Compound 6, 2-[4-(Piperidin-1-yl)-phenylamino]-4-phenylamino-quinazoline Dihydrochloride]
Human 5HT1Dα receptor
  Receptor (pKi) 5HT1Dα: 5.30
[3]
  Ki: 0.437 µM
Human 5HT1E receptor
  Receptor (pKi) 5HT1E: 5.30
5HT1D2
  Receptor (pKi) 5HT1D2: 5.30
Human 5HT1F receptor
  Receptor (pKi) 5HT1F: 5.30

## NPY: neuropeptide Y; porcine NPY, 300 pmole i.c.v., in the feeding studies
Satiated rats
  effect on food intake vs vehicles: significantly induce food intake

## Cl.c1ccc(Nc2nc(Nc3ccccc3)c3ccccc3n2)cc1 [Compound 1, 2,4-Diphenylamino-quinazoline Hydrochloride]
[2]
  Ki: 2.04 µM
Human 5HT1E receptor
  Receptor (pKi) 5HT1E: 5.30
5HT1D2
  Receptor (pKi) 5HT1D2: 5.30
Human 5HT2 receptor
  Ki: 0.457 µM
Human 5HT1F receptor
  Receptor (pKi) 5HT1F: 5.30
5HT1a
  Ki: 30.9 µM

## 2-(Naphthalen-1-yl)-3-phenylpropane-1,2-diamine [Compound 28]
Human Y4 receptor [4]; read-out: Binding Affinity (Ki (nM) vs. ^125I-PYY) Human Receptor Y4, stably transfected cells
  Ki: > 100000 nM
Human Y1 receptor; read-out: Binding Affinity (Ki (nM) vs. ^125I-PYY) Human Receptor Y1, stably transfected 293 or LM(tk-) cells, compound 1 also COS-7 data
  Ki: > 100000 nM
Human Y2 receptor [1]; read-out: Binding Affinity (Ki (nM) vs. ^125I-PYY) Human Receptor Y2, stably transfected 293 or LM(tk-) cells, compound 1 also COS-7 data
  Ki: > 75000 nM

## CNS(=O)(=O)Cc1ccc(Nc2nc(Nc3ccccc3)c3cc(OC)ccc3n2)cc1.Cl [Compound 10, N-Methyl-[4-(6-methoxy-4-phenylamino-quinazolin-2-ylamino)-phenyl]-methanesulfonamide Hydrochloride]
Human Y2 receptor [1]
  Ki: > 100000 nM
Human 5HT1Dα receptor
  Receptor (pKi) 5HT1Dα: 5.30
Human 5HT1E receptor
  Receptor (pKi) 5HT1E: 5.30
5HT1D2
  Receptor (pKi) 5HT1D2: 5.30
Human 5HT1F receptor
  Receptor (pKi) 5HT1F: 5.30

## COc1ccc(Nc2nc(Nc3ccccc3)c3cccc(OC)c3n2)cc1.Cl [Compound 9, 8-Methoxy-2-(4-methoxy-phenylamino)-4-phenylamino-quinazoline Hydrochloride]
Human Y2 receptor [1]
  Ki: > 100000 nM
Human 5HT1Dα receptor
  Receptor (pKi) 5HT1Dα: 5.30
Human 5HT1E receptor
  Receptor (pKi) 5HT1E: 5.30
5HT1D2
  Receptor (pKi) 5HT1D2: 5.30
Human 5HT1F receptor
  Receptor (pKi) 5HT1F: 5.30

## Cl.O=[N+]([O-])c1ccccc1S(=O)(=O)NC[C@H]1CC[C@H](CNCC2CCc3ccccc3C2)CC1 (some centres unmarked) [Compound 20]
Human 5HT1E receptor
  Receptor (pKi) 5HT1E: 5.30
Human 5HT1F receptor
  Receptor (pKi) 5HT1F: 5.30

## CC(=O)O[C@H]1CC[C@H](Nc2nc(Nc3ccccc3)c3ccccc3n2)CC1 [Compound 7, trans-2-(4-Acetoxy-cyclohexylamino)-4-phenylamino-quinazoline Hydrochloride]
[5]
  Ki: 0.0692 µM
Human Y4 receptor [4]
  Ki: 7050 nM
Human Y1 receptor
  Ki: 2170 nM
Human Y2 receptor [1]
  Ki: 2870 nM
Human 5HT1Dα receptor
  Ki: 1.41 µM
[3]
  Ki: 0.141 µM
Human 5HT1E receptor
  Ki: 5.01 µM
[6]
  Ki: 0.832 µM
5HT1D2
  Ki: 5.01 µM
Human 5HT1F receptor
  Ki: 5.01 µM
[7]
  Ki: 0.813 µM
Human 5-HT7 receptor
  Ki: 0.229 µM
[8]
  Ki: 0.871 µM
[9]
  Ki: 0.347 µM

## Cl.O=S(=O)(NC[C@H]1CC[C@H](CNCC2CCc3ccccc3C2)CC1)c1cccc2ccccc12 (some centres unmarked) [Compound 19]
Human 5HT1E receptor
  Receptor (pKi) 5HT1E: 5.30
5HT1D2
  Receptor (pKi) 5HT1D2: 5.30
Human 5HT1F receptor
  Receptor (pKi) 5HT1F: 5.30

## NC(N)=NCCC[C@@H](NC(=O)C(c1ccccc1)c1ccccc1)C(=O)NCc1ccc(O)cc1 [BIBP 3226]
Human Y2 receptor [10]
  Ki: 6.9 µM
Human Y4 receptor [11]
  Ki: 8 µM
Rat Y2 receptor [12]
  antagonism of NPY- or PP-induced activation: no evidence for antagonism
Rat Y2 receptor [13]
  Ki: 66 µM
Canine Y5 receptor
  Ki: 17000 nM
Rat Y4 receptor
  Ki: 0.42 µM
